Experimental data taken from the supplement of paper PMC10307832.

Experiments:
Test in all cases: relative viability (nuclei count vs DMSO), 5 days (fraction); higher = more cells survive
[1] = system: NCI-H1975
Method in brief: (§1)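 Relative viability was taken as the ratio of nuclei in treated wells to nuclei in vehicle wells. Lung cancer cell lines in 1536-well plates received compounds by pin tool one day after seeding, either one drug alone or a fixed anchor-drug dose plus five library-drug doses (not always all listed) in √10 steps. Nuclei were counted on 4× images after 5 days of treatment, and values are medians of duplicate plates.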

[2] = system: NCI-H1651
Method in brief: as §1

[3] = system: NCI-H1734
Method in brief: as §1

[4] = system: EMC-BAC-2
Method in brief: as §1

[5] = system: NCI-H661
Method in brief: as §1

[6] = system: ABC-1
Method in brief: as §1

[7] = system: EPLC-272H
Method in brief: as §1

[8] = system: NCI-H1792
Method in brief: as §1

[9] = system: NCI-H647
Method in brief: as §1

[10] = system: NCI-H1915
Method in brief: as §1

[11] = system: RERF-LC-KJ
Method in brief: as §1

[12] = system: 201T
Method in brief: as §1

[13] = system: NCI-H23
Method in brief: as §1

[14] = system: SK-LU-1
Method in brief: as §1

[15] = system: NCI-H2023
Method in brief: as §1

[16] = system: HCC-78
Method in brief: as §1

[17] = system: NCI-H2405
Method in brief: as §1

[18] = system: NCI-H1437
Method in brief: as §1

[19] = system: LOU-NH91
Method in brief: as §1

[20] = system: UMC-11
Method in brief: as §1

[21] = system: LCLC-103H
Method in brief: as §1

Cc1cnc(-c2cnc(NCCNc3ccc(C#N)cn3)nc2-c2ccc(Cl)cc2Cl)[nH]1 + CC(C)C[C@H](NC(=O)[C@H](Cc1ccccc1)NC(=O)c1cnccn1)B(O)O [Bortezomib] (partner 0.002 µM)
relative viability ([1]; first compound 0.08 µM): 0.412 | relative viability ([1]; first compound 0.253 µM): 0.391 | relative viability ([1]; first compound 0.8 µM): 0.425 | relative viability ([1]; first compound 2.53 µM): 0.328 | relative viability ([2]; first compound 0.08 µM): 0.965 | relative viability ([2]; first compound 0.253 µM): 0.883 | relative viability ([2]; first compound 0.8 µM): 0.937 | relative viability ([2]; first compound 2.53 µM): 0.92 | relative viability ([3]; first compound 0.08 µM): 0.942 | relative viability ([3]; first compound 0.253 µM): 0.897 | relative viability ([3]; first compound 0.8 µM): 0.87 | relative viability ([3]; first compound 2.53 µM): 0.734 | relative viability ([4]; first compound 0.08 µM): 1.17 | relative viability ([4]; first compound 0.253 µM): 1.07 | relative viability ([4]; first compound 0.8 µM): 1.01 | relative viability ([4]; first compound 2.53 µM): 1.07 | relative viability ([5]; first compound 0.08 µM): 0.951 | relative viability ([5]; first compound 0.253 µM): 0.789 | relative viability ([5]; first compound 0.8 µM): 0.836 | relative viability ([5]; first compound 2.53 µM): 0.719 | relative viability ([6]; first compound 0.08 µM): 0.343 | relative viability ([6]; first compound 0.253 µM): 0.257 | relative viability ([6]; first compound 0.8 µM): 0.347 | relative viability ([6]; first compound 2.53 µM): 0.252 | relative viability ([7]; first compound 0.08 µM): 0.938 | relative viability ([7]; first compound 0.253 µM): 0.84 | relative viability ([7]; first compound 0.8 µM): 0.834 | relative viability ([7]; first compound 2.53 µM): 0.903 | relative viability ([8]; first compound 0.08 µM): 0.89 | relative viability ([8]; first compound 0.253 µM): 0.657 | relative viability ([8]; first compound 0.8 µM): 0.876 | relative viability ([8]; first compound 2.53 µM): 0.915 | relative viability ([9]; first compound 0.08 µM): 0.943 | relative viability ([9]; first compound 0.253 µM): 0.836 | relative viability ([9]; first compound 0.8 µM): 1.05 | relative viability ([9]; first compound 2.53 µM): 0.994 | relative viability ([10]; first compound 0.08 µM): 0.977 | relative viability ([10]; first compound 0.8 µM): 1.02 | relative viability ([10]; first compound 2.53 µM): 0.975 | relative viability ([11]; first compound 0.08 µM): 1.27 | relative viability ([11]; first compound 0.253 µM): 1 | relative viability ([11]; first compound 0.8 µM): 0.804 | relative viability ([11]; first compound 2.53 µM): 0.931 | relative viability ([12]; first compound 0.08 µM): 1.12 | relative viability ([12]; first compound 0.253 µM): 0.973 | relative viability ([12]; first compound 0.8 µM): 1.14 | relative viability ([12]; first compound 2.53 µM): 1.1 | relative viability ([13]; first compound 0.08 µM): 1.13 | relative viability ([13]; first compound 0.253 µM): 0.846 | relative viability ([13]; first compound 0.8 µM): 1.16 | relative viability ([13]; first compound 2.53 µM): 1.13 | relative viability ([14]; first compound 0.08 µM): 1.26 | relative viability ([14]; first compound 0.253 µM): 0.993 | relative viability ([14]; first compound 0.8 µM): 1.34 | relative viability ([14]; first compound 2.53 µM): 1.13 | relative viability ([15]; first compound 0.08 µM): 1.44 | relative viability ([15]; first compound 0.253 µM): 0.651 | relative viability ([15]; first compound 0.8 µM): 1.01 | relative viability ([15]; first compound 2.53 µM): 0.978 | relative viability ([16]; first compound 0.08 µM): 0.645 | relative viability ([16]; first compound 0.253 µM): 0.457 | relative viability ([16]; first compound 0.8 µM): 0.443 | relative viability ([16]; first compound 2.53 µM): 0.41 | relative viability ([17]; first compound 0.08 µM): 0.68 | relative viability ([17]; first compound 0.253 µM): 1.02 | relative viability ([17]; first compound 0.8 µM): 0.967 | relative viability ([17]; first compound 2.53 µM): 0.98 | relative viability ([18]; first compound 0.08 µM): 0.536 | relative viability ([18]; first compound 0.253 µM): 0.475 | relative viability ([18]; first compound 0.8 µM): 0.451 | relative viability ([18]; first compound 2.53 µM): 0.472 | relative viability ([19]; first compound 0.08 µM): 0.488 | relative viability ([19]; first compound 0.253 µM): 0.519 | relative viability ([19]; first compound 0.8 µM): 0.491 | relative viability ([19]; first compound 2.53 µM): 0.491 | relative viability ([20]; first compound 0.08 µM): 0.759 | relative viability ([20]; first compound 0.253 µM): 0.595 | relative viability ([20]; first compound 0.8 µM): 0.516 | relative viability ([20]; first compound 2.53 µM): 0.659 | relative viability ([21]; first compound 0.08 µM): 1.08 | relative viability ([21]; first compound 0.253 µM): 1.04 | relative viability ([21]; first compound 0.8 µM): 0.983 | relative viability ([21]; first compound 2.53 µM): 0.912
